Measured values from PubChem BioAssay (NCI).
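All cell lines were grown in 96-well plates and treated with compound for 48 hours. GI50 marks 50% less growth. TGI: concentration producing complete growth inhibition.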

Assays:
Test in all cases: NCI tumour cell line growth inhibition, 48 h
[1] = tested on: HL-60(TB) leukemia
[2] = tested on: CAKI-1 renal
[3] = tested on: HOP-92 NSCLC
[4] = tested on: OVCAR-4 ovarian
[5] = tested on: HCC-2998 colon
[6] = tested on: HS 578T breast
[7] = tested on: SR leukemia
[8] = tested on: BT-549 breast
[9] = tested on: U251 CNS
[10] = tested on: EKVX NSCLC

Nc1c(C(=O)Nc2cccc(Br)c2)sc2nc3c(cc12)C(=O)CCC3
GI50 [1]: 408 nM
TGI [1]: > 100000 nM
GI50 [2]: 615 nM
TGI [2]: > 100000 nM
GI50 [3]: 640 nM
TGI [3]: 86200 nM
GI50 [4]: 28500 nM
TGI [4]: > 100000 nM
GI50 [5]: 1460 nM
TGI [5]: > 53200 nM
GI50 [6]: 597 nM
TGI [6]: 83500 nM
GI50 [7]: 525 nM
TGI [7]: > 100000 nM
GI50 [8]: 3100 nM
TGI [8]: > 100000 nM
GI50 [9]: 517 nM
TGI [9]: > 100000 nM

C=CCc1cccc(/C=N/NC(=O)CN2CCN(Cc3ccccc3)CC2)c1O
GI50 [1]: 1600 nM
TGI [1]: 4790 nM
GI50 [2]: 841 nM
TGI [2]: 2120 nM
GI50 [10]: 2490 nM
TGI [10]: 12800 nM
GI50 [3]: 1280 nM
TGI [3]: 6220 nM
GI50 [4]: 1450 nM
TGI [4]: 11800 nM
GI50 [5]: 2740 nM
TGI [5]: 17100 nM
GI50 [6]: 5630 nM
TGI [6]: 23100 nM
GI50 [7]: 772 nM
TGI [7]: 4240 nM
GI50 [8]: 2840 nM
TGI [8]: 15300 nM
GI50 [9]: 2130 nM
TGI [9]: 14900 nM

CCOC(=O)C(=Cc1cccc(Cl)c1)C(=O)OCC
GI50 [1]: 2180 nM
TGI [1]: 5650 nM
GI50 [2]: 2190 nM
TGI [2]: 5450 nM
GI50 [10]: 3750 nM
TGI [10]: 14300 nM
GI50 [3]: 1740 nM
TGI [3]: 4490 nM
GI50 [4]: 2660 nM
TGI [4]: 8870 nM
GI50 [5]: 1790 nM
TGI [5]: 3240 nM
GI50 [6]: 4290 nM
TGI [6]: 29800 nM
GI50 [7]: 1550 nM
TGI [7]: > 100000 nM
GI50 [8]: 2060 nM
TGI [8]: 5070 nM
GI50 [9]: 4470 nM
TGI [9]: 15900 nM

COC12C=C/C(=C(/C(=O)OCc3ccncc3)C(=O)CCCCCCCCC3(OC)C=C/C(=C(/C(=O)OCc4ccncc4)C(=O)CCCCCCCC1)O3)O2
GI50 [1]: 371 nM
TGI [1]: 1960 nM
GI50 [2]: 1120 nM
TGI [2]: 2850 nM
GI50 [10]: 1210 nM
TGI [10]: 5100 nM
GI50 [3]: 1230 nM
TGI [3]: 2360 nM
GI50 [4]: 583 nM
TGI [4]: 3410 nM
GI50 [5]: 683 nM
TGI [5]: 1390 nM
GI50 [6]: 1750 nM
TGI [6]: 15400 nM
GI50 [7]: 191 nM
TGI [7]: 7010 nM
GI50 [8]: 638 nM
TGI [8]: 3210 nM
GI50 [9]: 500 nM
TGI [9]: 1460 nM

Cc1nc2ccccc2nc1-c1ccc(N=[N+]([O-])c2ccc(-c3nc4ccccc4nc3C)cc2)cc1
TGI [1]: > 100000 nM
TGI [2]: > 100000 nM
TGI [10]: > 100000 nM
TGI [3]: > 66100 nM
TGI [4]: > 100000 nM
TGI [5]: > 100000 nM
TGI [6]: > 95900 nM
TGI [7]: > 100000 nM
TGI [8]: > 100000 nM
TGI [9]: > 63200 nM

COc1cc(-c2nn(-c3cccc(NC(=O)Nc4ccc(Cl)c(Cl)c4)c3)cc2-c2ccncc2)ccc1Cl
GI50 [1]: 1660 nM
TGI [1]: > 50000 nM
GI50 [2]: 1120 nM
TGI [2]: 3700 nM
GI50 [3]: 151 nM
TGI [3]: 1470 nM
GI50 [4]: 1290 nM
TGI [4]: > 50000 nM
GI50 [5]: 1560 nM
TGI [5]: 6200 nM
GI50 [6]: 1430 nM
TGI [6]: > 50000 nM
GI50 [7]: 932 nM
TGI [7]: 2800 nM
GI50 [8]: 1680 nM
TGI [8]: 27600 nM
GI50 [9]: 820 nM
TGI [9]: 2470 nM

Cc1nc2cnc(N)c(C#Cc3cncc(C(=O)Nc4ccc(CN5CCN(C)CC5)c(C(F)(F)F)c4)c3)c2nc1C
GI50 [1]: 138 nM
TGI [1]: 3800 nM
GI50 [2]: 310 nM
TGI [2]: 1540 nM
GI50 [10]: 739 nM
TGI [10]: 12600 nM
GI50 [3]: 64.6 nM
TGI [3]: 566 nM
GI50 [4]: 119 nM
TGI [4]: 6170 nM
GI50 [5]: 651 nM
TGI [5]: 13100 nM
GI50 [6]: 541 nM
TGI [6]: 5660 nM
GI50 [7]: 1670 nM
TGI [7]: 10900 nM
GI50 [8]: 2000 nM
TGI [8]: 11800 nM
GI50 [9]: 2520 nM
TGI [9]: 19500 nM
